Test results reported in US12036312B2, “Non-aqueous topical compositions comprising a halogenated salicylanilide” (priority 2016, dated 2024).
≈ marks a conversion by molar mass, not a printed value. Where two headings read alike, the source gives them in different places.

Experiments:
[1] = published literature values; cited from earlier work
[2] = test system: S. pyogenes; test: Minimum inhibitory concentration (MIC) assay, Example 1, S. pyogenes strains; assay type: cell-based; details: Streptococcus pyogenes, read-out: MIC
Method: Twenty-one other MRSA and methicillin-sensitive S. aureus strains, and 4 Streptococcus pyogenes strains, were also included in the study (Table 2). These covered fusidic acid- and mupirocin-resistant strains, these two types of resistance being of clinical relevance.
Strains were conserved in Luria Bertani (LB) Broth (S. aureus) or Brain Heart Infusion (BHI) (S. pyogenes) supplemented with glycerol 15% (v/v) at −80° C., and reactivated by isolation on LB (S. aureus) or BHI (S. pyogenes) agar plates. Strains were cultivated in Mueller Hinton (MH) Broth-cation adjusted (S. aureus) supplemented with lysed horse blood 2.5% (v/v) (S. pyogenes). All strains were cultivated at 37° C., aerobically for S. aureus strains.
Bacterial cultures were stopped in their exponential growth phase and plates were inoculated with the approximate concentration of 10^3 cells per well. Plates were incubated at 37° C. for 18 hours (S. aureus) or 24 hours (S. pyogenes). Optical density at a wavelength of 600 nm was measured at the end of the incubation time. […] Experiments were performed at least as triplicate biological replicates with all strains.

In the case of `O=C(Nc1ccc([N+](=O)[O-])cc1Cl)c1cc(Cl)ccc1O` [Niclosamide, niclosamide], the LD50 mice p.o [1] is listed as >1500 mg/kg, the MIC ([2]; ATCC12385, S. pyogenes strain ATCC 12385) is listed as 1.6 µg/mL (≈ 4.89 µM) and the MIC ([2]; ATCC19615, S. pyogenes strain ATCC 19615) is listed as 3.2 µg/mL (≈ 9.78 µM). For the same compound, the MIC ([2]; CCUG25571, S. pyogenes strain CCUG 25571) was 3.2 µg/mL (≈ 9.78 µM) and the MIC ([2]; S. pyogenes strain 01) was 3.2 µg/mL (≈ 9.78 µM).
